Measured values reported in PubChem BioAssay AID270 (DTP/NCI, 2004).
Values joined by “and” are separate entries in the source; they are usually repeats but may differ in a detail not shown here. Equal values may be shown once. Results filed as inconclusive are left out.

Tested on: BDF1 mice, s.c. Lewis lung carcinoma, T/C %
Assay: NCI In Vivo Anticancer Drug Screen. Data for tumor model Lewis Lung Carcinoma (subcutaneous) in B6D2F1 (BDF1) mice
How it was run: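 Transplanted tumors grown in mice; compound vs vehicle dosing; endpoint survival or tumor size; ratio T/C.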

SMILES: CC1CCC(NC(=O)N(CCCl)N=O)CC1 (configuration not stated)
- T/C (endpoint: mean survival time, dose: 8.0 mg/kg/injection, schedule: Q08DX002 (ip), vehicle: saline + alcohol, higher = longer survival): 97 % of control
- T/C (endpoint: mean survival time, dose: 16.0 mg/kg/injection, schedule: Q08DX002 (ip), vehicle: saline + alcohol, higher = longer survival): 105 % of control
- T/C (endpoint: mean survival time, dose: 24.0 mg/kg/injection, schedule: Q08DX002 (ip), vehicle: saline + alcohol, higher = longer survival): 123 % of control
- T/C (endpoint: median survival time, dose: 0.5 mg/kg/injection, schedule: Q01DX001 (ip), vehicle: Klucel (hydroxypropylcellulose) (HPC), higher = longer survival): 107 % of control
- T/C (endpoint: median survival time, dose: 1.0 mg/kg/injection, schedule: Q01DX001 (ip), vehicle: Klucel (hydroxypropylcellulose) (HPC), higher = longer survival): 86 % of control
- T/C (endpoint: median survival time, dose: 1.0 mg/kg/injection, schedule: Q01DX005 (ip), vehicle: saline + alcohol, higher = longer survival): 90 % of control and 107 % of control
- T/C (endpoint: median survival time, dose: 1.0 mg/kg/injection, schedule: Q02DX009 (ip), vehicle: saline + alcohol, higher = longer survival): 106 % of control and 124 % of control
- T/C (endpoint: median survival time, dose: 2.0 mg/kg/injection, schedule: Q01DX005 (ip), vehicle: saline + alcohol, higher = longer survival): 113 % of control and 114 % of control
- T/C (endpoint: median survival time, dose: 2.0 mg/kg/injection, schedule: Q01DX009 (ip), vehicle: Klucel (hydroxypropylcellulose) (HPC), higher = longer survival): 90 % of control and 105 % of control and 120 % of control
- T/C (endpoint: median survival time, dose: 2.0 mg/kg/injection, schedule: Q01DX009 (ip), vehicle: saline with Tween-80, higher = longer survival): 91 % of control and 114 % of control
- T/C (endpoint: median survival time, dose: 2.0 mg/kg/injection, schedule: Q02DX009 (ip), vehicle: saline + alcohol, higher = longer survival): 115 % of control
- T/C (endpoint: median survival time, dose: 4.0 mg/kg/injection, schedule: Q01DX001 (ip), vehicle: Klucel (hydroxypropylcellulose) (HPC), higher = longer survival): 86 % of control
- T/C (endpoint: median survival time, dose: 4.0 mg/kg/injection, schedule: Q01DX005 (ip), vehicle: saline + alcohol, higher = longer survival): 93 % of control and 105 % of control
- T/C (endpoint: median survival time, dose: 4.0 mg/kg/injection, schedule: Q01DX009 (ip), vehicle: Klucel (hydroxypropylcellulose) (HPC), higher = longer survival): 92 % of control and 97 % of control
- T/C (endpoint: median survival time, dose: 4.0 mg/kg/injection, schedule: Q01DX009 (ip), vehicle: saline with Tween-80, higher = longer survival): 98 % of control
- T/C (endpoint: median survival time, dose: 4.0 mg/kg/injection, schedule: Q02DX009 (ip), vehicle: saline + alcohol, higher = longer survival): 90 % of control and 115 % of control
- T/C (endpoint: median survival time, dose: 6.7 mg/kg/injection, schedule: Q01DX005 (ip), vehicle: saline with Tween-80, higher = longer survival): 105 % of control and 113 % of control
- T/C (endpoint: median survival time, dose: 7.0 mg/kg/injection, schedule: Q01DX001 (ip), vehicle: saline with Tween-80, higher = longer survival): 104 % of control and 121 % of control
- T/C (endpoint: median survival time, dose: 7.5 mg/kg/injection, schedule: Q01DX001 (ip), vehicle: Klucel (hydroxypropylcellulose) (HPC), higher = longer survival): 86 % of control
- T/C (endpoint: median survival time, dose: 7.5 mg/kg/injection, schedule: Q01DX001 (ip), vehicle: saline with Tween-80, higher = longer survival): 112 % of control
- T/C (endpoint: median survival time, dose: 8.0 mg/kg/injection, schedule: Q01DX001 (ip), vehicle: Klucel (hydroxypropylcellulose) (HPC), higher = longer survival): 96 % of control
- T/C (endpoint: median survival time, dose: 8.0 mg/kg/injection, schedule: Q01DX001 (ip), vehicle: saline + alcohol, higher = longer survival): 100 % of control and 107 % of control
- T/C (endpoint: median survival time, dose: 8.0 mg/kg/injection, schedule: Q01DX005 (ip), vehicle: saline + alcohol, higher = longer survival): 118 % of control and 120 % of control
- T/C (endpoint: median survival time, dose: 8.0 mg/kg/injection, schedule: Q02DX009 (ip), vehicle: saline + alcohol, higher = longer survival): 118 % of control
- T/C (endpoint: median survival time, dose: 8.0 mg/kg/injection, schedule: Q08DX002 (ip), vehicle: saline + alcohol, higher = longer survival): 95 % of control
- T/C (endpoint: median survival time, dose: 9.0 mg/kg/injection, schedule: Q01DX001 (ip), vehicle: Klucel (hydroxypropylcellulose) (HPC), higher = longer survival): 94 % of control
- T/C (endpoint: median survival time, dose: 10.0 mg/kg/injection, schedule: Q01DX001 (ip), vehicle: Klucel (hydroxypropylcellulose) (HPC), higher = longer survival): 85 % of control and 95 % of control
- T/C (endpoint: median survival time, dose: 10.0 mg/kg/injection, schedule: Q01DX005 (ip), vehicle: saline with Tween-80, higher = longer survival): 157 % of control
- T/C (endpoint: median survival time, dose: 10.7 mg/kg/injection, schedule: Q01DX001 (ip), vehicle: saline with Tween-80, higher = longer survival): 111 % of control
- T/C (endpoint: median survival time, dose: 11.0 mg/kg/injection, schedule: Q01DX001 (ip), vehicle: saline with Tween-80, higher = longer survival): 94 % of control and 113 % of control
- T/C (endpoint: median survival time, dose: 12.0 mg/kg/injection, schedule: Q01DX001 (ip), vehicle: gum acacia, higher = longer survival): 158 % of control
- T/C (endpoint: median survival time, dose: 13.0 mg/kg/injection, schedule: Q04DX004 (ip), vehicle: saline with Tween-80, higher = longer survival): 115 % of control
- T/C (endpoint: median survival time, dose: 15.0 mg/kg/injection, schedule: Q01DX001 (ip), vehicle: Klucel (hydroxypropylcellulose) (HPC), higher = longer survival): 112 % of control
- T/C (endpoint: median survival time, dose: 16.0 mg/kg/injection, schedule: Q01DX001 (ip), vehicle: gum acacia, higher = longer survival): 112 % of control
- T/C (endpoint: median survival time, dose: 16.0 mg/kg/injection, schedule: Q01DX001 (ip), vehicle: saline + alcohol, higher = longer survival): 109 % of control
- T/C (endpoint: median survival time, dose: 16.0 mg/kg/injection, schedule: Q01DX001 (ip), vehicle: saline with Tween-80, higher = longer survival): 95 % of control and 118 % of control
- T/C (endpoint: median survival time, dose: 16.0 mg/kg/injection, schedule: Q05DX002 (ip), vehicle: gum acacia, higher = longer survival): 156 % of control
- T/C (endpoint: median survival time, dose: 16.0 mg/kg/injection, schedule: Q06DX002 (ip), vehicle: gum acacia, higher = longer survival): 121 % of control
- T/C (endpoint: median survival time, dose: 16.0 mg/kg/injection, schedule: Q07DX002 (ip), vehicle: saline with Tween-80, higher = longer survival): 83 % of control
- T/C (endpoint: median survival time, dose: 16.0 mg/kg/injection, schedule: Q08DX002 (ip), vehicle: saline + alcohol, higher = longer survival): 105 % of control
- T/C (endpoint: median survival time, dose: 16.0 mg/kg/injection, schedule: Q11DX002 (ip), vehicle: saline with Tween-80, higher = longer survival): 63 % of control
- T/C (endpoint: median survival time, dose: 16.0 mg/kg/injection, schedule: Q11DX002 (oral), vehicle: saline with Tween-80, higher = longer survival): 103 % of control
- T/C (endpoint: median survival time, dose: 18.0 mg/kg/injection, schedule: Q01DX001 (ip), vehicle: other, higher = longer survival): 118 % of control
- T/C (endpoint: median survival time, dose: 20.0 mg/kg/injection, schedule: Q01DX001 (ip), vehicle: Klucel (hydroxypropylcellulose) (HPC), higher = longer survival): 115 % of control
- T/C (endpoint: median survival time, dose: 22.0 mg/kg/injection, schedule: Q01DX005 (ip), vehicle: saline with Tween-80, higher = longer survival): 113 % of control
- T/C (endpoint: median survival time, dose: 24.0 mg/kg/injection, schedule: Q07DX002 (ip), vehicle: saline with Tween-80, higher = longer survival): 77 % of control
- T/C (endpoint: median survival time, dose: 24.0 mg/kg/injection, schedule: Q08DX002 (ip), vehicle: gum acacia, higher = longer survival): 165 % of control
- T/C (endpoint: median survival time, dose: 24.0 mg/kg/injection, schedule: Q11DX002 (ip), vehicle: saline with Tween-80, higher = longer survival): 110 % of control
- T/C (endpoint: median survival time, dose: 24.0 mg/kg/injection, schedule: Q11DX002 (oral), vehicle: saline with Tween-80, higher = longer survival): 103 % of control
- T/C (endpoint: median survival time, dose: 25.0 mg/kg/injection, schedule: Q04DX004 (ip), vehicle: saline with Tween-80, higher = longer survival): 111 % of control
- T/C (endpoint: median survival time, dose: 30.0 mg/kg/injection, schedule: Q01DX001 (ip), vehicle: Klucel (hydroxypropylcellulose) (HPC), higher = longer survival): 150 % of control
- T/C (endpoint: median survival time, dose: 30.0 mg/kg/injection, schedule: Q01DX001 (ip), vehicle: saline with Tween-80, higher = longer survival): 160 % of control
- T/C (endpoint: median survival time, dose: 32.0 mg/kg/injection, schedule: Q01DX001 (ip), vehicle: saline + alcohol, higher = longer survival): 86 % of control and 88 % of control
- T/C (endpoint: median survival time, dose: 36.0 mg/kg/injection, schedule: Q10DX002 (ip), vehicle: gum acacia, higher = longer survival): 108 % of control
- T/C (endpoint: median survival time, dose: 36.0 mg/kg/injection, schedule: Q12DX002 (ip), vehicle: gum acacia, higher = longer survival): 93 % of control
- T/C (endpoint: median survival time, dose: 60.0 mg/kg/injection, schedule: Q01DX001 (ip), vehicle: Klucel (hydroxypropylcellulose) (HPC), higher = longer survival): 90 % of control
- T/C (endpoint: median survival time, dose: 60.0 mg/kg/injection, schedule: Q01DX001 (ip), vehicle: saline with Tween-80, higher = longer survival): 112 % of control
- T/C (endpoint: median survival time, dose: 64.0 mg/kg/injection, schedule: Q01DX001 (ip), vehicle: saline + alcohol, higher = longer survival): 57 % of control
- T/C (endpoint: median survival time, dose: 128.0 mg/kg/injection, schedule: Q01DX001 (ip), vehicle: saline + alcohol, higher = longer survival): 49 % of control
- T/C (endpoint: median tumor weight (est.), dose: 2.0 mg/kg/injection, schedule: Q01DX009 (ip), vehicle: Klucel (hydroxypropylcellulose) (HPC), higher = larger tumour): 82 % of control
- T/C (endpoint: median tumor weight (est.), dose: 4.0 mg/kg/injection, schedule: Q01DX009 (ip), vehicle: Klucel (hydroxypropylcellulose) (HPC), higher = larger tumour): 51 % of control
- T/C (endpoint: median tumor weight (est.), dose: 7.0 mg/kg/injection, schedule: Q01DX001 (ip), vehicle: DMSO, higher = larger tumour): 59 % of control
- T/C (endpoint: median tumor weight (est.), dose: 7.0 mg/kg/injection, schedule: Q01DX001 (ip), vehicle: saline with Tween-80, higher = larger tumour): 90 % of control
- T/C (endpoint: median tumor weight (est.), dose: 7.0 mg/kg/injection, schedule: Q01DX001 (sc), vehicle: olive oil, sesame oil, peanut oil, higher = larger tumour): 83 % of control
- T/C (endpoint: median tumor weight (est.), dose: 7.5 mg/kg/injection, schedule: Q01DX001 (ip), vehicle: Klucel (hydroxypropylcellulose) (HPC), higher = larger tumour): 92 % of control
- T/C (endpoint: median tumor weight (est.), dose: 8.0 mg/kg/injection, schedule: Q01DX009 (ip), vehicle: Klucel (hydroxypropylcellulose) (HPC), higher = larger tumour): 3 % of control
- T/C (endpoint: median tumor weight (est.), dose: 11.0 mg/kg/injection, schedule: Q01DX001 (ip), vehicle: DMSO, higher = larger tumour): 16 % of control
- T/C (endpoint: median tumor weight (est.), dose: 11.0 mg/kg/injection, schedule: Q01DX001 (ip), vehicle: saline with Tween-80, higher = larger tumour): 56 % of control
- T/C (endpoint: median tumor weight (est.), dose: 11.0 mg/kg/injection, schedule: Q01DX001 (sc), vehicle: olive oil, sesame oil, peanut oil, higher = larger tumour): 53 % of control
- T/C (endpoint: median tumor weight (est.), dose: 12.0 mg/kg/injection, schedule: Q01DX001 (ip), vehicle: gum acacia, higher = larger tumour): 41 % of control and 50 % of control
- T/C (endpoint: median tumor weight (est.), dose: 15.0 mg/kg/injection, schedule: Q01DX001 (ip), vehicle: Klucel (hydroxypropylcellulose) (HPC), higher = larger tumour): 42 % of control
- T/C (endpoint: median tumor weight (est.), dose: 16.0 mg/kg/injection, schedule: Q01DX001 (ip), vehicle: gum acacia, higher = larger tumour): 46 % of control
- T/C (endpoint: median tumor weight (est.), dose: 16.0 mg/kg/injection, schedule: Q01DX001 (ip), vehicle: saline with Tween-80, higher = larger tumour): 71 % of control
- T/C (endpoint: median tumor weight (est.), dose: 16.0 mg/kg/injection, schedule: Q01DX001 (sc), vehicle: olive oil, sesame oil, peanut oil, higher = larger tumour): 74 % of control
- T/C (endpoint: median tumor weight (est.), dose: 24.0 mg/kg/injection, schedule: Q01DX001 (ip), vehicle: saline with Tween-80, higher = larger tumour): 31 % of control
- T/C (endpoint: median tumor weight (est.), dose: 24.0 mg/kg/injection, schedule: Q01DX001 (sc), vehicle: olive oil, sesame oil, peanut oil, higher = larger tumour): 18 % of control
- T/C (endpoint: median tumor weight (est.), dose: 30.0 mg/kg/injection, schedule: Q01DX001 (ip), vehicle: Klucel (hydroxypropylcellulose) (HPC), higher = larger tumour): 3 % of control
